From patent publication US20260327191A1, “GSK3a INHIBITORS AND METHODS OF USE THEREOF” (Blueprint Medicines Corporation, priority 2023, published 2026) come the findings set out here.

Where a name gives a salt, the structure may show the parent alone. Read-outs that look alike come from different tables or passages of the source.

In one assay the target is T1, human GSK3α (Homo sapiens, UniProt P49840).
T1 construct: Full length human GSK3α or GSK3B expressed as N-terminal GST fusion proteins; GST (N); purchased Carna Biosciences (Japan); host or cells: baculovirus host
T1 sequence (P49840 whole entry, the tested form may be a part): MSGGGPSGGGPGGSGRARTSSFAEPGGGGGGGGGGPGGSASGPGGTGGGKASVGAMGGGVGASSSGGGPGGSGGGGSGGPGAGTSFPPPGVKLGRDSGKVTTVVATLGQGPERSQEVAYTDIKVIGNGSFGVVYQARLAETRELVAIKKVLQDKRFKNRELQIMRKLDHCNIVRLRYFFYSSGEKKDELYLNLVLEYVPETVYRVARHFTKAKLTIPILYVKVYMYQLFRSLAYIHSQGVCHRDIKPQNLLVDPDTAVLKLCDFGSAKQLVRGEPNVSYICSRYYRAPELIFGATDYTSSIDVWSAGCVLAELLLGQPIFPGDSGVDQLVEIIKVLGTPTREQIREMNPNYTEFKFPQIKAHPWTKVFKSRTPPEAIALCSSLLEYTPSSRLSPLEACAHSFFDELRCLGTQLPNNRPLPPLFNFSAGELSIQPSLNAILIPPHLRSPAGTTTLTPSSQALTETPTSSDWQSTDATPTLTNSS
As to the kind of experiment: In vitro enzymatic activity assay, GSK3α. In kind it is biochemical. As to conditions: 1.0 mM ATP, 1.0 μM peptide substrate, 120 min, 25° C.

The target in the next assay is T2, GSK3A (Homo sapiens, UniProt P49840).
T2 construct: expressed in transfected cells
T2 sequence (P49840 whole entry): as the sequence (P49840 whole entry, the tested form may be a part) above
As to the kind of experiment: NanoBRET cellular target engagement assay, Nanoluc-GSK3A in HEK293 cells. As to conditions: NanoBRET GSK3α IC50, HEK293 cells, tracer K-8, 2 hours, 37° C. In kind it is cell-based.

For assay [1], the target named is T3, GSK3B (Homo sapiens, UniProt P49841). Description: NanoBRET cellular target engagement assay, Nanoluc-GSK3B in HEK293 cells. The assay is classed as cell-based. The arrangement: expressed in transfected cells. As to conditions: NanoBRET GSK3β IC50, HEK293 cells, tracer K-8, 2 hours, 37° C.
T3 sequence (P49841 whole entry, the tested form may be a part): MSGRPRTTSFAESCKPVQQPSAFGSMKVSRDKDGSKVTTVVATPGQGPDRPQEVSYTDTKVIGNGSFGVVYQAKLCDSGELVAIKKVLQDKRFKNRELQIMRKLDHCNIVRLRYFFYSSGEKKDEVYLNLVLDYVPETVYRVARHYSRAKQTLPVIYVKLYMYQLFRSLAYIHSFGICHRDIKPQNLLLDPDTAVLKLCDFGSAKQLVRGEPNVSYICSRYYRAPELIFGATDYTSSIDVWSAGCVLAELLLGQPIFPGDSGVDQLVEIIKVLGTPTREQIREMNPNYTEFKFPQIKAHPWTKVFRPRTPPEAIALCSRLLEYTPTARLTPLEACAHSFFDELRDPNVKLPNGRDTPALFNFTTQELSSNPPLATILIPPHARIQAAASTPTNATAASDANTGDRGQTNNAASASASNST
Assay [2] concerns the target T3, GSK3B. Description: In vitro enzymatic activity assay, GSK3β. The assay is classed as biochemical. The arrangement: Full length human GSK3α or GSK3B expressed as N-terminal GST fusion proteins; GST (N); purchased Carna Biosciences (Japan); host or cells: baculovirus host. As to conditions: 1.0 mM ATP, 1.0 μM peptide substrate, 120 min, 25° C.

Regarding `CCNCc1cncc(NC(=O)c2c(N)ncn(-c3c(C)cc(CC(F)F)cc3C)c2=O)c1` [Example 156, 4-amino-1-(4-(2,2-difluoroethyl)-2,6-dimethylphenyl)-N-(5-((ethylamino)methyl)pyridin-3-yl)-6-oxo-1,6-dihydropyrimidine-5-carboxamide], the IC50 at human GSK3α (read-out: Enzyme GSK3α (IC50)) was determined as 34.9 nM; at GSK3A, 8.1 nM; against GSK3B [1] it was 957 nM; at GSK3B [2] (read-out: Enzyme GSK3β (IC50)), 1250 nM.

`COCc1cc(C)c(-n2cnc(N)c(C(=O)Nc3cncc(C4(N)CCC4)c3)c2=O)c(C)c1` [Example 157, 4-amino-N-(5-(1-aminocyclobutyl)pyridin-3-yl)-1-(4-(methoxymethyl)-2,6-dimethylphenyl)-6-oxo-1,6-dihydropyrimidine-5-carboxamide]: the concentration for half-maximal inhibition (IC50) on human GSK3α (read-out: Enzyme GSK3α (IC50)) was 32.5 nM; against GSK3A it was 11.3 nM; against GSK3B [1], 1160 nM; at GSK3B [2] (read-out: Enzyme GSK3β (IC50)) it was 1320 nM.

Regarding `Cc1cc(CS(C)(=O)=O)cc(C)c1-n1cnc(N)c(C(=O)Nc2cncc([C@H]3CCCCN3)c2)c1=O` [Example 158, (R)-4-amino-1-(2,6-dimethyl-4-((methylsulfonyl)methyl)phenyl)-6-oxo-N-(5-(piperidin-2-yl)pyridin-3-yl)-1,6-dihydropyrimidine-5-carboxamide], the IC50 on human GSK3α (read-out: Enzyme GSK3α (IC50)) came out at 9.3 nM; on GSK3A, 37.3 nM; against GSK3B [1], 532 nM; on GSK3B [2] (read-out: Enzyme GSK3β (IC50)), 355 nM.

Regarding `Cc1cc(F)cc(C)c1-n1cnc(N)c(C(=O)Nc2cncc([C@H]3CCCCN3)c2)c1=O` [Example 161, (R)-4-amino-1-(4-fluoro-2,6-dimethylphenyl)-6-oxo-N-(5-(piperidin-2-yl)pyridin-3-yl)-1,6-dihydropyrimidine-5-carboxamide trifluoroacetate], the IC50 on human GSK3α (read-out: Enzyme GSK3α (IC50)) turned out to be 7.2 nM; at GSK3A, 3 nM; at GSK3B [1], 287 nM; at GSK3B [2] (read-out: Enzyme GSK3β (IC50)) it was 379 nM.

Turning to `Cc1cc(C(F)(F)F)cc(C)c1-n1cnc(N)c(C(=O)Nc2cncc([C@H]3CCCCN3)c2)c1=S` [Example 162, (R)-4-amino-1-(2,6-dimethyl-4-(trifluoromethyl)phenyl)-N-(5-(piperidin-2-yl)pyridin-3-yl)-6-thioxo-1,6-dihydropyrimidine-5-carboxamide trifluoroacetate], the IC50 on human GSK3α (read-out: Enzyme GSK3α (IC50)) is 5.6 nM; at GSK3A, 5.4 nM; against GSK3B [1], 301 nM; at GSK3B [2] (read-out: Enzyme GSK3β (IC50)), 218 nM.

On to `COCc1cc(C)c(-n2cnc(N)c(C(=O)Nc3cncc([C@H]4CCCCN4)c3)c2=S)c(C)c1` [Example 163, (R)-4-amino-1-(4-(methoxymethyl)-2,6-dimethylphenyl)-N-(5-(piperidin-2-yl)pyridin-3-yl)-6-thioxo-1,6-dihydropyrimidine-5-carboxamide trifluoroacetate], for which the IC50 was determined as 5.6 nM on human GSK3α (read-out: Enzyme GSK3α (IC50)), 2.8 nM at GSK3A, 205 nM on GSK3B [1] and 250 nM on GSK3B [2] (read-out: Enzyme GSK3β (IC50)).

As to `CNCCc1c(NC(=O)c2c(N)ncn(-c3c(C)cccc3Cl)c2=O)cccc1OC` [Example 164, 4-amino-1-((S)-2-chloro-6-methylphenyl)-N-(3-methoxy-2-(2-(methylamino)ethyl)phenyl)-6-oxo-1,6-dihydropyrimidine-5-carboxamide], the IC50 came to 29.4 nM on human GSK3α (read-out: Enzyme GSK3α (IC50)), 9.7 nM against GSK3A, 1170 nM at GSK3B [1] and 1850 nM on GSK3B [2] (read-out: Enzyme GSK3β (IC50)).

In the case of `CCOc1cc(Cl)c(-n2cnc(N)c(C(=O)Nc3cncc(CNCCS(C)(=O)=O)c3)c2=O)c(Cl)c1` [Example 165, 4-amino-1-(2,6-dichloro-4-ethoxyphenyl)-N-(5-(((2-(methylsulfonyl)ethyl)amino)methyl)pyridin-3-yl)-6-oxo-1,6-dihydropyrimidine-5-carboxamide], the IC50 turned out to be 10.8 nM at human GSK3α (read-out: Enzyme GSK3α (IC50)), 9.3 nM at GSK3A, 1120 nM against GSK3B [1] and 434 nM on GSK3B [2] (read-out: Enzyme GSK3β (IC50)).

With `NCc1cccc(NC(=O)c2c(N)ncn(-c3c(Cl)cccc3Cl)c2=O)c1OC(F)F` [Example 170, 4-amino-N-(3-(aminomethyl)-2-(difluoromethoxy)phenyl)-1-(2,6-dichlorophenyl)-6-oxo-1,6-dihydropyrimidine-5-carboxamide trifluoroacetate], the IC50 turned out to be 21.8 nM on human GSK3α (read-out: Enzyme GSK3α (IC50)), 16.4 nM at GSK3A, 526 nM on GSK3B [1] and 520 nM at GSK3B [2] (read-out: Enzyme GSK3β (IC50)).

Regarding `NCc1cccc(NC(=O)c2c(N)ncn(-c3c(Cl)cccc3Cl)c2=O)c1C(F)(F)F` [Example 171, 4-amino-N-(3-(aminomethyl)-2-(trifluoromethyl)phenyl)-1-(2,6-dichlorophenyl)-6-oxo-1,6-dihydropyrimidine-5-carboxamide], the IC50 on human GSK3α (read-out: Enzyme GSK3α (IC50)) came out at 44.8 nM; on GSK3A, 30.1 nM; against GSK3B [1], 851 nM; at GSK3B [2] (read-out: Enzyme GSK3β (IC50)) it was 1280 nM.

For the compound `Nc1ncn(-c2c(O)cccc2Cl)c(=O)c1C(=O)Nc1cncc([C@@H]2CCCCN2)c1` [Example 173, (S)-4-amino-1-(2-chloro-6-hydroxyphenyl)-6-oxo-N-(5-(piperidin-2-yl)pyridin-3-yl)-1,6-dihydropyrimidine-5-carboxamide], the IC50 amounted to 1880 nM at human GSK3α (Enzyme GSK3α (IC50)), 1510 nM against GSK3A, 25000 nM at GSK3B [1] and 10000 nM at GSK3B [2] (Enzyme GSK3β (IC50)).

Take `CCC[C@@H](N)c1cncc(NC(=O)c2c(N)ncn(-c3c(C)cc(COC)cc3C)c2=O)c1` [Example 176, (R)-4-amino-N-(5-(1-aminobutyl)pyridin-3-yl)-1-(4-(methoxymethyl)-2,6-dimethylphenyl)-6-oxo-1,6-dihydropyrimidine-5-carboxamide]: the IC50 at human GSK3α (read-out: Enzyme GSK3α (IC50)) turned out to be 5.1 nM; against GSK3A it was 2.6 nM; at GSK3B [1] it was 190 nM; on GSK3B [2] (read-out: Enzyme GSK3β (IC50)), 272 nM.

In the case of `COc1cc(Cl)c(-n2cnc(N)c(C(=O)Nc3cncc(C4(N)CCC4)c3)c2=O)c(Cl)c1` [Example 179, 4-amino-N-(5-(1-aminocyclobutyl)pyridin-3-yl)-1-(2,6-dichloro-4-methoxyphenyl)-6-oxo-1,6-dihydropyrimidine-5-carboxamide], the IC50 on human GSK3α (read-out: Enzyme GSK3α (IC50)) stood at 3.7 nM; against GSK3A it was 3.3 nM; against GSK3B [1] it was 179 nM; on GSK3B [2] (read-out: Enzyme GSK3β (IC50)), 257 nM.

Consider `COc1cc(Cl)c(-n2cnc(N)c(C(=O)Nc3cncc(C4(N)CC4)c3)c2=O)c(Cl)c1` [Example 181, 4-amino-N-(5-(1-aminocyclopropyl)pyridin-3-yl)-1-(2,6-dichloro-4-methoxyphenyl)-6-oxo-1,6-dihydropyrimidine-5-carboxamide], for which the IC50 was determined as 7.9 nM on human GSK3α (read-out: Enzyme GSK3α (IC50)), 7 nM against GSK3A, 491 nM at GSK3B [1] and 536 nM on GSK3B [2] (read-out: Enzyme GSK3β (IC50)).

As for `COc1cc(Cl)c(-n2cnc(N)c(C(=O)Nc3cncc(C4(N)CCOCC4)c3)c2=O)c(Cl)c1` [Example 182, 4-amino-N-(5-(4-aminotetrahydro-2H-pyran-4-yl)pyridin-3-yl)-1-(2,6-dichloro-4-methoxyphenyl)-6-oxo-1,6-dihydropyrimidine-5-carboxamide], the IC50 was found to be 17.4 nM on human GSK3α (read-out: Enzyme GSK3α (IC50)), 8.2 nM against GSK3A, 643 nM on GSK3B [1] and 915 nM on GSK3B [2] (read-out: Enzyme GSK3β (IC50)).

As for `CCOc1cc(Cl)c(-n2cnc(N)c(C(=O)Nc3cncc(C4(N)CCC4)c3)c2=O)c(Cl)c1` [Example 183, 4-amino-N-(5-(1-aminocyclobutyl)pyridin-3-yl)-1-(2,6-dichloro-4-ethoxyphenyl)-6-oxo-1,6-dihydropyrimidine-5-carboxamide], the half-maximal inhibitory concentration (IC50) amounted to 7.9 nM at human GSK3α (read-out: Enzyme GSK3α (IC50)), 5 nM against GSK3A, 300 nM against GSK3B [1] and 576 nM at GSK3B [2] (read-out: Enzyme GSK3β (IC50)).

In the case of `Cc1cc(C(C)(F)F)cc(C)c1-n1cnc(N)c(C(=O)Nc2cncc([C@H]3CCCCN3)c2)c1=O` [Example 186, (R)-4-amino-1-(4-(1,1-difluoroethyl)-2,6-dimethylphenyl)-6-oxo-N-(5-(piperidin-2-yl)pyridin-3-yl)-1,6-dihydropyrimidine-5-carboxamide], the IC50 stood at 4.4 nM at human GSK3α (read-out: Enzyme GSK3α (IC50)), 2.1 nM against GSK3A, 152 nM on GSK3B [1] and 169 nM on GSK3B [2] (read-out: Enzyme GSK3β (IC50)).

On to `COc1cc(Cl)c(-n2cnc(N)c(C(=O)Nc3cncc4c3CCC43CCCN3)c2=O)c(Cl)c1` (stereo not shown) [Example 192, 4-amino-1-(2,6-dichloro-4-methoxyphenyl)-N-(5,6-dihydrospiro[cyclopenta[c]pyridine-7,2′-pyrrolidin]-4-yl)-6-oxo-1,6-dihydropyrimidine-5-carboxamide], for which the IC50 at human GSK3α (read-out: Enzyme GSK3α (IC50)) turned out to be 1.8 nM; against GSK3A, 1.4 nM; at GSK3B [1] it was 18.8 nM; at GSK3B [2] (read-out: Enzyme GSK3β (IC50)), 14.7 nM.

With `Nc1ncn(-c2c(Cl)cc(OC(F)F)cc2Cl)c(=O)c1C(=O)Nc1cccc([C@@H]2CCCN2)c1` [Example 193, (S)-4-amino-1-(2,6-dichloro-4-(difluoromethoxy)phenyl)-6-oxo-N-(3-(pyrrolidin-2-yl)phenyl)-1,6-dihydropyrimidine-5-carboxamide], the half-inhibitory concentration (IC50) at human GSK3α (read-out: Enzyme GSK3α (IC50)) stood at 9.2 nM; against GSK3A it was 6.8 nM; against GSK3B [1], 487 nM; at GSK3B [2] (read-out: Enzyme GSK3β (IC50)), 481 nM.
